According to patent US4080467A, “Pharmaceutical compositions comprising 1,3-dithiolan-2-ylidene malonate derivatives” (Nihon Nohyaku Co., Ltd., priority 1976, dated 1978):

Experiments:
[1] = tested on: Acute Liver Damage associated with Centrilobular Necrosis (carbon tetrachloride); experiment: Protective effect on acute liver damage associated with centrilobular necrosis (carbon tetrachloride model); assay type: in vivo, mice (four-week-old male, dd strain); conditions: 250 mg/kg oral 6 h before CCl4, average of 5 to 6 mice; for p-GPT (plasma glutamic-pyruvic transaminase activity): 24 h after CCl4, values over 1,000 regarded as 1,000; for Liver Damage Index: 0 normal, 2 slightly recognized, 4 clearly observable damage, 6 heavy damage
Source text: Carbon tetrachloride (CCl4) administration induces centrilobular necrosis of the liver associated with loss of diphosphopyridine nucleotide, hepatic glycogen, coenzyme A and increase in neutral fat. Release of several enzymes from the hepatocytes, and increases of enzyme activities in the plasma are recognized as the result of the damage of the liver. A suitable means for evaluating the degree of damage induced by CCl4 or the degree of protection afforded by drugs is to study the plasma glutamic-pyruvic transaminase (p-GPT) activity.
Method: The test compounds were dissolved or suspended in olive oil and administered orally at the dose of 250 mg/kg to the mice (Four-week-old male mice-dd strain). After 6 hours, CCl4 was administered orally (0.05 ml/kg as olive oil solution). Animals were killed 24 hours after CCl4 administration, and the liver was grossly observed. The plasma was obtained by centrifugation. Activities of p-GPT were determined by the method of Reitman and Frankel and expressed in Karmen units.
Score for liver damage was as follows: […]
4 Clearly observable damage
Each figure indicates average of 5 to 6 mice. Values of p-GPT over 1,000 Karmen unit regarded as 1,000 for calculation of average for convenience.

[2] = Effect on concentration of ethyl alcohol in the blood; assay type: in vivo, mice; conditions: 250 mg/kg oral 6 h before ethyl alcohol 1,000 mg/kg
Description: The test compounds are dissolved or suspended in olive oil and administered orally at the dose of 250 mg/kg to the mice. After 6 hours, 1,000 mg/kg of ethyl alcohol was given orally. Blood was taken in a capillary from caudal vein at the time indicated in the results. The plasma was obtained by centrifugation. The concentration of ethyl alcohol in the plasma was measured by FID type gas liquid chromatography. Five mice were used for each group.

[3] = tested on: Chronic Liver Damage (thioacetamide); experiment: Therapeutic effect on chronic liver damage (thioacetamide model), BSP test; assay type: in vivo, rats (Sprague Dawley strain); conditions: 12 times TAA 100 mg/kg, then diet + 0.2% compound
Description: In the tests of this Example, TAA was repeatedly administered to animals to prepare test animals suffering from somewhat chronic liver damages, and then the present compounds were administered thereto to know whether or not the compounds were effective against chronic hepatitis.
The degree of the liver damage and the therapeutic effects of the compounds were evaluated according to BSP test. The BSP test is a method in which BSP (sulfobromophthalein sodium), a dye known to be quickly metabolized in and excreted from the liver, is intravenously injected into animals and, after a definite period of time, the blood is taken out to measure the amount of BSP remaining in the plasma. In case the animals are suffering from the liver damage, the dye will remain, according to the degree of the damage, at the stage where a major portion of BSP is metabolized and excreted in the case of normal animals.
Five groups of rats (Sprague Dawley strain) were treated as follows:
Group A: The rats were orally administered with 100 mg/kg of thioacetamide,at 3 days intervals for 36 days (12 times of the administration), then were submitted for 10 days to a normal diet.
Group B: The rats were orally administered with 100 mg/kg of thioacetamide at 3 days intervals for 36 days (12 times of the administration), then were submitted for 10 days to the normal diet + 0.2% of compound 4.
Group C: The rats were orally administered with 100 mg/kg of thioacetamide at 3 days intervals for 36 days (12 times of the administration) then were submitted for 10 days to the normal diet + 0.2% of compound 2.
Group D: The rats were orally administered with 100 mg/kg of thioacetamide at 3 days intervals for 36 days (12 times of the administration) then were submitted for 10 days to the normal diet + 0.2% of anethol trithion.
Group E: The rats were submitted to the normal diet as the control.
Five rats were sacrified from each group at appropriate intervals for BSP (sulfobromophthalein) test, the results of which were shown as amounts (mg) of BSP remaining in 1 dl of plasma.

[4] = tested on: bile flow and biliary salt; experiment: Cholagogic action: bile flow and excretion of biliary salt; assay type: in vivo, male rat (4 week-aged, SD-JCL strain); conditions: 200 mg/kg oral; for bile flow / excretion of biliary salt: before treatment = 100
Description: The male rat (4 week-aged, SD-JCL strain) was anesthetized with sodium pentobarbital (37.5 mg/kg, intraperitoneal injection). The abdominal cavity was opened through a midline incision. The common bile duct was catheterized with polyethylene tube o.d. 0.8 mm. The catheter was brought to the outside through the abdominal incision wound prior to closing. Bile was collected from the catheter continuously with time intervals of one hour. The quantity of bile produced in one hour was determined by weighing and that of biliary salt was determined by enzymatic method (Ikagaku Jikkenho Koza 1B, Biological Constituents II, edited by Tamio YAMAKAWA). The amount of biliary salts was represented as cholic acid equivalent.
In the representation of the results, the quantities of bile and biliary salts produced in one hour prior to the administration of drug were taken as 100. The compound of this invention was orally administered at the dose of 200 mg/kg. As reference anethol trithion was used.

[5] = tested on: acute liver damage associated with discrete lobular necrosis (D-galactosamine); experiment: Protective effect on acute hepatitis with mesenchymal reaction and discrete lobular necrosis (D-galactosamine model); assay type: in vivo, male rat (SD strain); conditions: 100 mg/kg oral 6 h before D-galactosamine
Description: D-Galactosamine is a compound which induces a discrete lobular necrosis associated with mesenchymal reaction similar to the change observed in human viral hepatitis, so that it is frequently used in producing a model for viral hepatitis.
The compound of this invention or anethol trithion was administered orally to the male rat (SD strain) at the dose of 100 mg/kg. Six hours after it, D-galacetosamine was intraperitoneally administered at the dose of 600 mg/kg. Four hours after it, an additional 300 mg/kg was administered intraperitoneally. Eight hours after it, the animals were sacrificed to collect the blood samples. P-GPT activity and triglyceride in the liver were measured to evaluate the effect of the compound of this invention.

in vivo = conditions: mouse, po
[6] = tested on: fatty liver (carbon tetrachloride); experiment: Therapeutic effect on fatty liver (carbon tetrachloride model); assay type: in vivo, male rat (35 week-old, SD strain)
Description: Carbon tetrachloride also induces fatty liver, but the picture of disease differs from the case of ethionine-induced fatty liver. Carbon tetrachloride is generally considered to damage microsome and thereby to inhibit protein synthesis and induce fatty liver.
Carbon tetrachloride was subscutaneously administered to 35 week-old male rat (SD strain) for 4 days at the dose of 1 ml/kg. The treated animals were left for 3 days after the last administration to maximize the manifestation of fatty liver.
Administration of the compounds of this invention was commenced on the fourth day after the administration of carbon tetrachloride was completed. It was orally given everyday for 10 days at the dose of 50 or 250 mg/kg. On the 11th day, the animals were sacrificed. The therapeutic effect was evaluated by determining the content of lipid in the liver (triglyceride and total lipid) and examining the histopathological changes. Triglyceride and total lipid were determined colorimetrically by chromotropic acid method and Bragdon's oxidation method, respectively.
Indices for the histopathological change is as follows.

fatty liver (ethionine) = experiment: Effect on fatty liver (ethionine model); assay type: in vivo, male mice (4 week-old, dd-strain); conditions: diet plus 0.2% ethionine and 0.2% compound, 5 days
Source text: There are known many factors inducing fatty liver. But, the fatty liver is grouped into a couple of patterns from the mechanism of lipid accumulation or metabolism of lipoprotein in the liver. Ethionine is a typical compound inducing fatty liver. It inhibits RNA and protein syntheses and destructs polysome of the liver cell. Fatty liver is induced by the inhibition of protein synthesis and the disturbance of lipoprotein secretion.
Usually, fatty liver is closely related to the accumulation of triglyceride in the liver. In the present example, the degree of fatty liver and protective or therapeutic effect against the fatty liver was evaluted by measurement of triglyceride content in the liver.
The animals used in the test were 4 week-old male mice (dd-strain).
The mice were submitted for 5 days to a normal diet (control), to the normal diet plus 0.2% ethionine (positive control), to the normal diet plus 0.2% ethionine and 0.2% of the compound of this invention, or to the normal diet plus 0.2% ethionine and 0.2% methionine which was the referential diet. At the end of the period of 5 days, content of triglyceride in the liver was studied colorimetrically by chromotropic acid method and the result was represented as triolein content (mg/g-liver).

[7] = 50 mg/kg oral everyday for 10 days
[8] = 250 mg/kg oral everyday for 10 days

Row | SMILES | p-GPT (plasma glutamic-pyruvic transaminase activity) [1] [Karmen units] | Liver Damage Index [1] | Concentration of Ethyl alcohol in Plasma ([2]; 0 min) [ppm] | Concentration of Ethyl alcohol in Plasma ([2]; 5 min) [ppm] | Concentration of Ethyl alcohol in Plasma ([2]; 15 min) [ppm] | Concentration of Ethyl alcohol in Plasma ([2]; 30 min) [ppm] | Concentration of Ethyl alcohol in Plasma ([2]; 60 min) [ppm] | LD50 (in vivo) [mg/kg] | Triglyceride (content in the liver, as triolein) (fatty liver (ethionine)) [mg/g] | other results
1 | CCOC(=O)C(C(=O)SCC)=C1SCCS1 [Compound 26] | 62 | 0.6 | 10±3 | 690±102 | 694±86 | 432±96 | 12±8 | – | – | –
2 | CCOC(=O)C(C(=O)OCC)=C1SCCS1 [Compound 2, Diethyl 1,3-dithiolan-2-ylidene malonate] | 47 | 0.8 | 8±3 | 712±75 | 65±98 | 422±100 | 15±8 | 1110 | – | Concentration of BSP in plasma ([3]; 2 Days): 9.8 ± 3.1 mg/dL; Concentration of BSP in plasma ([3]; 5 Days): 4.7 ± 0.8 mg/dL; Concentration of BSP in plasma ([3]; 10 Days): 0.8 ± 0.2 mg/dL; bile flow ([4]; 1 hour after treatment): 108±3.8; excretion of biliary salt ([4]; 1 hour after treatment): 108±18; bile flow ([4]; 2 hours after treatment): 116±6.2; excretion of biliary salt ([4]; 2 hours after treatment): 120±12; bile flow ([4]; 3 hours after treatment): 109±8.3; excretion of biliary salt ([4]; 3 hours after treatment): 133±18; bile flow ([4]; 4 hours after treatment): 108±8.5; excretion of biliary salt ([4]; 4 hours after treatment): 120±21; bile flow ([4]; 5 hours after treatment): 98±3.8; excretion of biliary salt ([4]; 5 hours after treatment): 86±8.9; Amount of total biliary salts excreted for 5 hours relative to control ([4]; versus control): 1.63 times; Quantity of total excreted bile for 5 hours relative to control ([4]; versus control): 1.15 times; Triglyceride in liver [5]: 7.2 ± 1.5 mg/g; p-GPT [5]: 68±32 Karmen unit
3 | CCOC(=O)C(C(=O)OC(C)C)=C1SCCS1 [Compound 21, Ethyl isopropyl 1,3-dithiolan-2-ylidene malonate] | 64 | 0.6 | – | – | – | – | – | 2230 | – | Total lipid [6, 7]: 97.8 ± 10.3 mg/g-liver; Triglyceride [6, 7]: 40.6 ± 6.8 mg/g-liver; Total lipid [6, 8]: 70.2 ± 8.3 mg/g-liver; Triglyceride [6, 8]: 24.8 ± 3.2 mg/g-liver; Triglyceride in liver [5]: 6.8 ± 1.2 mg/g; p-GPT [5]: 47±21 Karmen unit
4 | CCOC(=O)C(C(=O)OC(C)CC)=C1SCCS1 (stereo not drawn) [Compound 22] | 67 | 0.4 | – | – | – | – | – | – | 11.3 ± 0.96 | –
5 | CCOC(=O)C(C(=O)OCC)=C1SCC[S+]1[O-] (stereo not drawn) [Compound 30] | 156 | 0.8 | – | – | – | – | – | – | 12.6 ± 2.3 | –
6 | CC(C)OC(=O)C(C(=O)OC(C)C)=C1SCC[S+]1[O-] (stereo not drawn) [Compound 31, 2-(Diisopropoxycarbonyl)methyliden-1,3-dithiolan-1-oxide] | 121 | 0.8 | 12±8 | 720±145 | 583±122 | 343±13 | 5±2 | > 6000 | – | –
7 | CSCC[C@H](N)C(=O)O [Methionine, methionine, reference compound] | – | – | – | – | – | – | – | – | 13.2 ± 2.1 | Total lipid [6, 8]: 168.6 ± 21.6 mg/g-liver; Triglyceride [6, 8]: 58.2 ± 9.6 mg/g-liver; Degree of fatty liver (histopathological examination) ([6]; 250 mg/kg oral, 10 days, one symbol per animal): + ± and ++ ++ ++ ±; therapeutic effect on fatty liver ([6]; carbon tetrachloride, in words): hardly exhibited a therapeutic effect
